Data as given in the supplement of paper PMC8671470.

Assays:
Details in all cases: 72 h
[1] = test system: BV-173
How it was run: (§1)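 Fifteen myeloid leukaemia lines in RPMI 1640 were treated for 72 h at 37 °C and 5% CO2 with five tenfold doses from 1 to 10,000 nM, in duplicate. ATP luminescence was normalised to vehicle and to a positive control at 10 µM, then fitted with a four-parameter log-logistic model. The IC50 came from these fits.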

[2] = test system: HEL
How it was run: as §1

[3] = test system: K-562
How it was run: as §1

[4] = test system: KU-812
How it was run: as §1

[5] = test system: LAMA-84
How it was run: as §1

[6] = test system: MOLM-13
How it was run: as §1

[7] = test system: MV4-11
How it was run: as §1

[8] = test system: Mono-Mac-6
How it was run: as §1

[9] = test system: SHI-1
How it was run: as §1

[10] = test system: THP-1
How it was run: as §1

[11] = test system: myeloid leukemia patient primary cells Pat.10; assay: cell viability (% survival relative to DMSO control); higher = less cytotoxic
How it was run: (§2)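 Thawed mononuclear cells from AML or CML patients were purified on Ficoll and cultured for 72 h in RPMI 1640 with 10% FBS, at 10,000 cells/well, on 384-well plates carrying 70 pre-printed compounds at 1–10,000 nM in five tenfold steps, in duplicate. Viability came from CellTiter-Glo, normalised against DMSO and against 10 μM proteasome inhibitor. Any area under the curve given was derived from log-logistic curve fits in the drc and PharmacoGx R packages, and these fits had four parameters.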

[12] = test system: myeloid leukemia patient primary cells Pat.11; assay: as above
How it was run: as §2

[13] = test system: myeloid leukemia patient primary cells Pat.12; assay: as above
How it was run: as §2

[14] = test system: myeloid leukemia patient primary cells Pat.13; assay: as above
How it was run: as §2

[15] = test system: myeloid leukemia patient primary cells Pat.14; assay: as above
How it was run: as §2

[16] = test system: myeloid leukemia patient primary cells Pat.15; assay: as above
How it was run: as §2

[17] = test system: myeloid leukemia patient primary cells Pat.1; assay: as above
How it was run: as §2

[18] = test system: myeloid leukemia patient primary cells Pat.2; assay: as above
How it was run: as §2

[19] = test system: myeloid leukemia patient primary cells Pat.3; assay: as above
How it was run: as §2

[20] = test system: myeloid leukemia patient primary cells Pat.4; assay: as above
How it was run: as §2

[21] = test system: myeloid leukemia patient primary cells Pat.5; assay: as above
How it was run: as §2

[22] = test system: myeloid leukemia patient primary cells Pat.6; assay: as above
How it was run: as §2

[23] = test system: myeloid leukemia patient primary cells Pat.7; assay: as above
How it was run: as §2

[24] = test system: myeloid leukemia patient primary cells Pat.8; assay: as above
How it was run: as §2

[25] = test system: myeloid leukemia patient primary cells Pat.9; assay: as above
How it was run: as §2

[26] = test system: HL-60; assay: area under dose-response curve (viability, 1 nM-10 uM) (fraction (0-1)); higher = more sensitive
How it was run: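 A rescreen of the full library used HL-60 cells in RPMI 1640 with 10% FBS on 384-well plates, run in duplicate at five tenfold concentrations (1–10,000 nM). Each screen included DMSO or 100 nM of one of three metabolic inhibitors and ran 72 h at 37 °C, 5% CO2. CellTiter-Glo viability was scaled between DMSO and 10 μM proteasome-inhibitor wells. Any area under the curve comes from four-parameter log-logistic fits with drc and PharmacoGx.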

CC(=O)Nc1nc(C)c(-c2ccc(Cl)c(S(=O)(=O)NCCO)c2)s1 [PIK93]
Details	IC50 (cell viability) [nM]
[1]	792
[2]	2190
[3]	2660
[4]	2690
[5]	8060
[6]	959
[7]	1090
[8]	1020
[9]	1090
[10]	1510

Details	area under dose-response curve, co-treatment: AZD3965 100 nM	area under dose-response curve, co-treatment: DMSO vehicle	area under dose-response curve, co-treatment: GSK2194069 100 nM	area under dose-response curve, co-treatment: pictilisib 100 nM	cell viability, 1 nM [%]	cell viability, 10 nM [%]	cell viability, 100 nM [%]	cell viability, 1000 nM [%]	cell viability, 10000 nM [%]
[11]	–	–	–	–	65.9	22.6	56.6	60.8	16.8
[12]	–	–	–	–	96.6	85.4	88.7	54.6	32.4
[13]	–	–	–	–	94.1	92.3	95.9	88.3	79
[14]	–	–	–	–	91.2	35.4	61.6	54.3	14.4
[15]	–	–	–	–	72.6	2.07	52.8	63.9	38.6
[16]	–	–	–	–	83.6	92.9	65.4	9.62	2.38
[17]	–	–	–	–	83.9	67.2	62.5	22.1	12.1
[18]	–	–	–	–	94.4	44.8	95.8	65.5	47.8
[19]	–	–	–	–	46.7	24	70.6	59.3	15.4
[20]	–	–	–	–	97.3	87.1	72.2	10.6	6.67
[21]	–	–	–	–	57.4	2.24	1.33	17	1.33
[22]	–	–	–	–	91.8	35.2	87.8	72.1	40.8
[23]	–	–	–	–	61.6	< 0	63.4	64.1	22
[24]	–	–	–	–	86.5	81.9	87.9	64.2	48.8
[25]	–	–	–	–	68.9	0.773	23.7	24.5	5.28
[26]	0.172	0.135	0.154	0.181	–	–	–	–	–

O=C(O)CC[N+](=O)[O-] [3-nitropropionic acid]
Details	IC50 (cell viability) [nM]
[1]	> 10000
[2]	> 10000
[3]	3640
[4]	> 10000
[5]	> 10000
[6]	2870
[7]	3170
[8]	> 10000
[9]	2940
[10]	> 10000

Details	area under dose-response curve, co-treatment: AZD3965 100 nM	area under dose-response curve, co-treatment: DMSO vehicle	area under dose-response curve, co-treatment: GSK2194069 100 nM	area under dose-response curve, co-treatment: pictilisib 100 nM	cell viability, 1 nM [%]	cell viability, 10 nM [%]	cell viability, 100 nM [%]	cell viability, 1000 nM [%]	cell viability, 10000 nM [%]
[11]	–	–	–	–	90.9	83.7	74.7	76.2	36.6
[12]	–	–	–	–	97.4	90.2	97.5	99.5	97.4
[13]	–	–	–	–	97.9	84	> 100	91.5	48.2
[14]	–	–	–	–	87.3	92.4	95.5	88.3	70.8
[15]	–	–	–	–	98.6	91.2	> 100	84.7	30.7
[16]	–	–	–	–	92.7	79.1	98.7	94.9	2.04
[17]	–	–	–	–	84.1	94.1	> 100	88.4	68.5
[18]	–	–	–	–	91.3	98.1	> 100	92.7	83.7
[19]	–	–	–	–	91.5	93.8	99.8	92.1	3.01
[20]	–	–	–	–	83.6	84.5	99.3	95.6	5.84
[21]	–	–	–	–	85.9	50.1	81.8	67.1	0.265
[22]	–	–	–	–	> 100	93	> 100	96.8	90
[23]	–	–	–	–	98.1	99.9	82.6	90.8	44.9
[24]	–	–	–	–	81.1	96.9	95.6	96.3	82.7
[25]	–	–	–	–	80.9	66.3	81.6	71.5	2.42
[26]	< 0.0301	< 0.0301	< 0.0301	< 0.0301	–	–	–	–	–

Cc1[nH]nc(C(F)(F)F)c1Cc1sc2c(c1C(=O)N1C[C@](C)(O)CO1)c(=O)n(C)c(=O)n2C(C)C [AZD3965]
Details	IC50 (cell viability) [nM]
[1]	36.2
[2]	> 10000
[3]	6.27
[4]	> 10000
[5]	> 10000
[6]	> 10000
[7]	> 10000
[8]	> 10000
[9]	> 10000
[10]	> 10000

Details	area under dose-response curve, co-treatment: AZD3965 100 nM	area under dose-response curve, co-treatment: DMSO vehicle	area under dose-response curve, co-treatment: GSK2194069 100 nM	area under dose-response curve, co-treatment: pictilisib 100 nM	cell viability, 1 nM [%]	cell viability, 10 nM [%]	cell viability, 100 nM [%]	cell viability, 1000 nM [%]	cell viability, 10000 nM [%]
[11]	–	–	–	–	98.2	33.4	85	46.5	48.7
[12]	–	–	–	–	93.7	91.6	> 100	> 100	88.6
[13]	–	–	–	–	93.3	94	> 100	99.9	98.2
[14]	–	–	–	–	85.6	69.2	93.7	97.4	81.1
[15]	–	–	–	–	84.2	39.1	> 100	89.9	98.9
[16]	–	–	–	–	84	98.8	92.7	96.7	93.6
[17]	–	–	–	–	93.1	89.5	97.5	95.2	93
[18]	–	–	–	–	97	87.2	99	96.3	98
[19]	–	–	–	–	86.2	76.4	> 100	92.3	94.2
[20]	–	–	–	–	87.3	98.5	98.1	> 100	> 100
[21]	–	–	–	–	82.2	5.69	65	55.7	44.5
[22]	–	–	–	–	90.7	83.2	97.7	94.9	96.1
[23]	–	–	–	–	64	45.1	93.6	99.9	98.5
[24]	–	–	–	–	86.7	74.6	89.9	92.5	87.8
[25]	–	–	–	–	> 100	34.8	> 100	74.3	86.9
[26]	< 0.0301	< 0.0301	< 0.0301	< 0.0301	–	–	–	–	–
